Measured values as given in BindingDB's records for doi:10.3109/14756366.2012.715287 (Atatürk University, 2013).

The compounds below were run against Serum paraoxonase/arylesterase 1 (Homo sapiens, UniProt P27169) (assay: Enzyme Activity Assay).
Sequence of Serum paraoxonase/arylesterase 1 (P27169 whole entry): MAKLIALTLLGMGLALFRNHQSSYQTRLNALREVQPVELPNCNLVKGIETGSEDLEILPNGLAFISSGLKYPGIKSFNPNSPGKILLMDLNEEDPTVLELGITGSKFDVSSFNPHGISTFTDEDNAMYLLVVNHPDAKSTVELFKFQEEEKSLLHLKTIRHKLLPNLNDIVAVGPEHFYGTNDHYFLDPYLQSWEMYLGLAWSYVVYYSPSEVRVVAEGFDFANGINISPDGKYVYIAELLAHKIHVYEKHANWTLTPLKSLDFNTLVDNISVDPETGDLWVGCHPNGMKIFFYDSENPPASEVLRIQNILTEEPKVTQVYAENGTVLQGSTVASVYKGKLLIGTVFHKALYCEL
Method: The enzyme assay was based on the estimation of p-nitrophenol at 412 nm. Paraoxonase activity was determined spectrophotometrically using the same procedure in our previous studies [Ekinci et al., Eur. J. Pharmacol., 617:84-89]. One enzyme unit was defined as the amount of enzyme that catalyzes the hydrolysis of 1 μmol of substrate at 25°C.
Work on COc1ccc(C(=O)c2c(Br)c(Br)cc(OC)c2OC)cc1OC [(2,3-dibromo-5,6-dimethoxyphenyl)(3,4-dimethoxyphenyl)methanone (7)] yielded an IC50 of 174 µM.
In the case of O=C(c1cc(O)c(O)c(Br)c1)c1c(O)c(O)cc(Br)c1Br [(3-Bromo-4,5-dihydroxyphenyl)(2,3-dibromo-5,6-dihydroxyphenyl)methanone (12)], the IC50 is reported as 701 µM.
With O=C(c1ccc(O)c(O)c1)c1c(O)c(O)cc(Br)c1Br [(2,3-Dibromo-5,6-dihydroxyphenyl)(3,4-dihydroxyphenyl)methanone (10)] the IC50 was 832 µM.
For COc1ccc(C(=O)c2cccc(OC)c2OC)cc1OC [(2,3-dimethoxyphenyl)(3,4-dimethoxyphenyl)methanone (6)], the IC50 was 1210 µM.
For O=C(c1cc(O)c(O)cc1Br)c1c(O)c(O)cc(Br)c1Br [(2-Bromo-4,5-dihydroxyphenyl)(2,3-dibromo-5,6-dihydroxyphenyl)methanone (11)], the IC50 was 1110 µM.
In the case of COc1cc(Br)c(C(=O)c2c(Br)c(Br)cc(OC)c2OC)cc1OC [(2-Bromo-4,5-dimethoxyphenyl)(2,3-dibromo-5,6-dimethoxyphenyl)methanone (8)], the IC50 is reported as 123 µM.
COc1cc(C(=O)c2c(Br)c(Br)cc(OC)c2OC)cc(Br)c1OC [(3-Bromo-4,5-dimethoxyphenyl)(2,3-dibromo-5,6-dimethoxyphenyl)methanone (9)] showed an IC50 of 125 µM.
